The subject of one series is Toxoplasma gondii. The settings on record: Toxoplasma gondii proliferation; cited from earlier work.
The target of series [1] is T1, Tyr from mushrooms (Agaricus bisporus, UniProt C7FF04). Kind of series: Inhibition of tyrosinase activity assay (screening at 25 µM). The settings on record: at 25 µM compound, L-tyrosine substrate, 10 U Tyr, 30 min. It is filed as biochemical, mushroom. Here is the method:
In our study, we used Tyr from mushrooms (T3824, Sigma) for all experiments. All compound dilutions, L-tyrosine a Tyr substrate, and Tyr were prepared in 50 mM phosphate buffer (pH 6.5). […] 100% Tyr activity we used for the sample without addition compound/inhibitor. […] The average results from three experiments are shown.

Series [2] has as its target T1, Tyr from mushrooms. Kind of series: Kinetic analysis of the inhibition of tyrosinase (Lineweaver-Burk, Dixon, [L-tyrosine]/V vs [I] plots). It is filed as biochemical, mushroom. The settings on record: for Ki: Dixon plots; for character of inhibition: Lineweaver–Burk plots; for IC50: plots of [L-tyrosine]/V vs [I]. The procedure: Therefore, these compounds were subsequently subjected to detailed kinetic studies to evaluate inhibition parameters. […] Dixon plots (Figure 7) were used in evaluating the KI values, while the plots of [L-tyrosine]/V vs. [I] (Figure 8), were employed to determine IC50Tyr[50]. [I] represents the concentration of the inhibitor. Rates were monitored spectrophotometrically by detecting changes in absorbance at 492 nm.
Solutions containing 80 µL of 0.625, 1.25, or 2.5 mM L-tyrosine and 50 µL of 20, 100, or 200 µM inhibitor were added to a 96-well plate. Then, solution containing 70 µL of Tyr (10 U) was added and the initial rate of dopachrome formation was determined through detecting the increase in absorbance at the wavelength of 492 nm (Δ492/min). […] In order to determine the inhibition constants KI the Dixon plots were constructed, whereas the plots of [L-tyrosine]/V vs. inhibitor concentration [I] were used for IC50Tyr evaluation. The results from three experiments are shown.

Series [3] has as its system T. gondii tachyzoites RH-GFP strain. Kind of series: Influence of compounds during Toxoplasma growth, assay A (compounds present only during penetration). It is filed as cell-based, Toxoplasma gondii. Particulars: compound at IC50Tg for 3 h during penetration, then 24 h free medium, Hs27 cells, vs untreated cells.
The test system is the same in series [4]. Kind of series: Influence of compounds during Toxoplasma growth, assay B (compounds present 24 h after penetration). It is filed as cell-based, Toxoplasma gondii. Particulars: 3 h infection without compound, then compound at IC50Tg for 24 h, Hs27 cells, vs untreated cells.
The test system of a further series is Hs27 cell line. Kind of series: Cytotoxicity assay (MTT) on human fibroblast Hs27 cells. It is filed as cell-based. Here is the method:
(§1) Cell viability assay was performed according to international standards (ISO 10993–5:2009(E)), using tetrazolium salt (MTT, Sigma-Aldrich) and mouse fibroblasts L929 cells. Culture medium RPMI 1640, without phenol red (Biowest, Nuaille, France) supplemented with 10% FBS, 2 mM L-glutamine (Sigma-Aldrich), 100 I.U./mL penicillin, 100 µg/mL streptomycin were used. Briefly, 1 × 10^4/well of L929 cells were placed in 96-well plates and incubated for 24 h at 37 °C and 10% CO2. Afterwards, the old culture medium was replaced with 100 µL of the compound, drug or inhibitor, diluted in culture medium, and the cells treated for 24 h. Additionally, cells were treated with 0.03–4.0% concentration of DMSO as the solvent (data not shown). Then, 50 µL of 1 mg/mL of MTT solution in RPMI 1640 without phenol red was added to each well and incubated for 2 h at 37 °C and 10% CO2. Next, cell culture medium was aspirated carefully and 150 µL of DMSO was added to each well, and the plates were gently mixed. Then, 25 µL 0.1 M glycine buffer (pH 10.5) (Sigma-Aldrich) was added. The optical density at 570 nm using a multi-mode microplate reader SpectraMax® i3 (Syngen, Taipei City, Taiwan) was recorded. The results were expressed as a percentage of viability compared to untreated cells. All experiments were performed in triplicate. Cytotoxicity assay using human fibroblast Hs27 cells was also performed as described above (included in Supplementary Material).

The subject of series [5] is T. gondii RH strain. On the set-up: method as in PMID 30744161, PMID 31022878. The settings on record: 50% inhibition of T. gondii proliferation in vitro; reported previously, listed for comparison; cited from earlier work.
A further series concerns L929 cells. Kind of series: Cell viability assay (MTT, ISO 10993-5) on L929 mouse fibroblasts. The settings on record: 24 h, concentration for 30% inhibition of cell proliferation. It is filed as cell-based.
Source text: First, we evaluated the cytotoxic effects of 1b–9b, which is necessary prior to measuring anti-Toxoplasma and Tyr inhibition in order to exclude cytotoxic compounds. […] Cytotoxicity was estimated using mouse fibroblast (L929) cells line via MTT assay, according to the international standards ISO 10993–5:2009(E). […] Therefore, the obtained results were expressed as CC30, which was defined as the highest concentration of the compound that causes 30% damage of cells and was considered according to ISO as non-toxic.
The L929 mouse fibroblast (ATTC® CCL-1™, Manassas, VA) was routinely maintained in RPMI 1640 media (R8758, Sigma-Aldrich, Suffolk, UK), supplemented with 10% foetal bovine serum (Foetal Bovine Serum, ATCC® 30–2020™), 100 I.U./mL penicillin and 100 µg/mL streptomycin (Penicillin-Streptomycin Solution ATCC® 30–2300™). Cells were trypsinised (Trypsin-EDTA Solution, 1X ATCC® 30–2101™) twice a week and seeded at a density of 1 × 10^6 per T25 cell culture flask and incubated at 37 °C and 10% CO2 to achieve a confluent monolayer.
as §1

The test system of series [6] is T. gondii RH strain. Kind of series: Antiparasitic assay: T. gondii RH proliferation in Hs27 cells, [3H]uracil incorporation. It is filed as cell-based, Toxoplasma gondii.

Like-named read-outs stand apart in the source and are kept apart here.

T1 sequence (G1K3P4 entry or part of it): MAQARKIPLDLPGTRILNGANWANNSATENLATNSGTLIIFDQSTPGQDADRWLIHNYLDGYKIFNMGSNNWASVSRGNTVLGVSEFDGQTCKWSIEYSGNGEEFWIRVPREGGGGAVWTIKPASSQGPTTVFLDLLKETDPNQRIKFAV
T1 sequence (C7FF04 1-392): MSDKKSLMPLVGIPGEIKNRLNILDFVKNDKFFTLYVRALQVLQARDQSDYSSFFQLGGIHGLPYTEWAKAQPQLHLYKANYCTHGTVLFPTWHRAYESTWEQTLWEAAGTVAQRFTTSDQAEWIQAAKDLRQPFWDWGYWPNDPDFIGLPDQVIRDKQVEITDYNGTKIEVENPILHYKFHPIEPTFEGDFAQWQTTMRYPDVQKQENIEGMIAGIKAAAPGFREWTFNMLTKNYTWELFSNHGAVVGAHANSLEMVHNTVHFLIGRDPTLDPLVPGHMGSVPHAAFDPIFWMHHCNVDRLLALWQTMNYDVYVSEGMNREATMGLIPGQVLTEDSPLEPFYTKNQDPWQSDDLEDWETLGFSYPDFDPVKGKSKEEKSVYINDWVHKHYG

In general, IC50 refers to the concentration that gives 50% inhibition. Consider `Nc1ccc(S(=O)(=O)Nc2ncccn2)cc1` [sulfadiazine], for which the half-maximal inhibitory concentration (IC50) in the series on Toxoplasma gondii was about 8500 µM.

For orientation: Ki means the equilibrium dissociation constant of an inhibitor or competing ligand from its target. On Tyr from mushrooms [1], `Cc1nc[nH]c1C(=O)NNC(=S)Nc1cccc(I)c1` [Compound 6a] returned a Tyrosinase inhibition of 48.9 ± 3.0%. Also, at Tyr from mushrooms [2], the inhibition constant (Ki) amounted to 12.4 µM, the character of inhibition result was “mixed character of inhibition” and the IC50 was determined as 37.4 µM. In addition, in series [3], the “number of infected cells (infection index)” value is “significant reduction” and the “number of tachyzoites per PV” value is listed as “significant reduction”. Further, in [4], the “number of tachyzoites per PV” value is “significant reduction” and the “percentage of infected cells” value was “not observable”. In addition, the CC30 in the series with Hs27 cell line turned out to be 209.45 µM. In addition, in the series with T. gondii RH strain [5], the IC50 is 25.7 µM.

On to `Cc1nc[nH]c1C(=O)NNC(=S)Nc1ccc([N+](=O)[O-])cc1` [Compound 2a], for which the Tyrosinase inhibition on Tyr from mushrooms [1] is 46.4 ± 3.6%. Moreover, on Tyr from mushrooms [2], the inhibition constant Ki came out at 9.35 µM; the character of inhibition result is given as “mixed character of inhibition”; the midpoint of inhibition, the IC50, lay at 38.3 µM. In addition, in [3], the “number of infected cells (infection index)” value was “significant reduction” and the “number of tachyzoites per PV” value is “significant reduction”. In [4], the “number of tachyzoites per PV” value is “significant reduction” and the “percentage of infected cells” value is “not observable”. The same compound gave a CC30 in the series on Hs27 cell line of 697.67 µM. Moreover, the IC50 in the series on T. gondii RH strain [5] is 67.5 µM.

For the compound `COc1cc(Cc2cnc(N)nc2N)cc(OC)c1OC` [Trimethoprim (TRI), Trimethoprim, reference compound], the CC30 with L929 cells was determined as 61.25 µM. The IC50 is 50.9 µM with T. gondii RH strain [6] (Toxoplasma gondii, HS27) and 50.9 µM in the series with Toxoplasma gondii. The “SR (selectivity ratio)” value with T. gondii RH strain [6] (ratio of CC30 (L929) to IC50Tg) turned out to be 1.20.

Source of the values: publication PMC8174488, “4-Arylthiosemicarbazide derivatives as a new class of tyrosinase inhibitors and anti-Toxoplasma gondii agents” (Journal of Enzyme Inhibition and Medicinal Chemistry, 2021).
